From patent US8192962B2, “Processes for detecting toxic substances” (Daikin Industries, Ltd., priority 2001, dated 2012)

Tested on: Stress protein genes
Experiment: DNA chip mRNA expression in yeast, stress protein genes (Table 6)
Format: cell-based, Saccharomyces cerevisiae S288C
Description: Yeast (Saccharomyces cerevisiae S288C (α SUC2mal mel gap2 CUP1)) were incubated at 25° C. on YPD medium (yeast extract 1%, polypepton 2%, glucose 2%). One of toxic chemical substances was added to the cells at logarithmic growth phase, and the cells were further incubated for two hours. Cells were cultured without any chemical substance in the same condition, and were used as control. Concentrations of the chemical substances were defined to inhibit the growth of the yeast but not lead to death.
After completion of the incubation, the culture was centrifuged to collect the cells. To the cells, sodium acetate buffer (50 mM sodium acetate, 10 mM EDTA, 1% SDS) was added, and the mixture was shaken at 65° C. for five minutes, followed by returning to room temperature, and obtaining the supernatant, of which the procedures were repeated two times. To the supernatant, ½ amount of a solution of phenol/chloroform was added, and the mixture was centrifuged to give a supernatant, which was added with an equal amount of chloroform, and the mixture was centrifuged to give a supernatant. To the supernatant, an equal amount of isopropanol containing 0.3 M sodium acetate was added, and the mixture was allowed to stand at room temperature for 30 minutes, after which the mixture was centrifuged to give a sediment of the whole RNAs. Seventy % ethanol was added to the sediment, and the mixture was again centrifuged to give a sediment, which was then dried and dissolved in water. mRNA was isolated from the whole RNAs as followings. In view of the fact that a poly A chain is attached to the 3′ terminus of mRNA, a polynucleotide having a poly T structure which was immobilized on the surface of latex beads was used to trap the mRNA, and then the mRNA was washed and eluted with spine column (Oligotex-dT30<Super>mRNA Purification Kit, Takara). Reverse transcription of the mRNA was conducted with a reverse transcriptase (Super Script II Reverse Transcriptase; catalogue No. 18064-014, GibcoBRL) using fluorescence-labeled nucleotides to give cDNAs that were introduced with Cy3-dUTP or Cy5-dUTP during the reverse transcription.
The labeled cDNAs were dissolved in TE buffer (10mM Tris-HCl/1 mM EDTA, pH8.0), and the solution was dropped on the DNA chip containing the whole genes of yeast (DNA Chip Research Inc. Japan) so that the cDNAs were hybridized on the DNA chip at 65° C. for over 12 hours. The fluoresces intensity of the DNA chip was read with a scanner, and the ratio relative to the fluorescence intensity resulting from the absence of chemical substance was estimated as the following, which is shown in Tables 1 to 9: […]

Measured: The level of expressed mRNA in the presence of chemical substance/The level of expressed mRNA in the absence of chemical substance

C[S+](C)[O-] [(15), dimethylsulfoxide]
3.3: yeast gene YBR067C
2.7: yeast gene YPR005C
0.4: yeast gene YEL039C
4.9: yeast gene YBR072W
1.7: yeast gene YDR293C | yeast gene YER057C | yeast gene YJL158C
3.9: yeast gene YLR109W
0.9: yeast gene YBR044C | yeast gene YDL022W | yeast gene YGL073W | yeast gene YIL011W | yeast gene YLL026W | yeast gene YLR006C | yeast gene YML070W | yeast gene YOR008C
0.6: yeast gene YBR054W | yeast gene YDR258C | yeast gene YHL028W | yeast gene YOR009W | yeast gene YOR010C
2.3: yeast gene YJR045C
0.3: yeast gene YKR053C
0.7: yeast gene YAL015C | yeast gene YGL115W | yeast gene YGR088W | yeast gene YNL064C | yeast gene YNL160W | yeast gene YPL140C
1.2: yeast gene YHR057C | yeast gene YIR038C | yeast gene YJL128C | yeast gene YKL164C | yeast gene YPL240C
6.1: yeast gene YDR077W
1.5: yeast gene YGL181W | yeast gene YLL060C | yeast gene YPL223C
1.6: yeast gene YBR169C | yeast gene YHR104W | yeast gene YJR090C
1.0: yeast gene YBR126C | yeast gene YCR083W | yeast gene YDL025C | yeast gene YER042W | yeast gene YHL046C | yeast gene YIL033C | yeast gene YIR037W | yeast gene YJL165C | yeast gene YKL210W | yeast gene YML007W | yeast gene YMR021C | yeast gene YOL064C | yeast gene YPL059W
6.3: yeast gene YFL014W
2.0: yeast gene YDR519W
2.2: yeast gene YDR098C
0.8: yeast gene YDR033W | yeast gene YDR436W | yeast gene YEL030W | yeast gene YER125W | yeast gene YFL016C
2.5: yeast gene YDR155C | yeast gene YMR173W
1.3: yeast gene YDR513W | yeast gene YKL161C | yeast gene YLL024C | yeast gene YMR186W
1.4: yeast gene YFL020C | yeast gene YFR052W | yeast gene YOR027W | yeast gene YPL194W
1.1: yeast gene YNR076W | yeast gene YOL161C | yeast gene YPL106C
